Experimental data reported in ChEMBL document CHEMBL3045836, “Synthesis characterization and biological evaluation of some alkoxyphthalimide derivatives of 3-(4-substituted phenyl)-6,6-diphenyl-3,3a-dihydro-2H-imidazo[2,1-b]pyrazolo[3,4-d][1,3]thiazol-7(6H)-one” (2011).

Assays:
Assay type in all cases: functional
Conditions in all cases: read-out: IZ
Bacillus subtilis = assay: Antibacterial activity against Bacillus subtilis at 500 ppm
Proteus mirabilis = assay: Antibacterial activity against Proteus mirabilis at 500 ppm
Aspergillus fumigatus = assay: Antifungal activity against Aspergillus fumigatus at 500 ppm
Escherichia coli = assay: Antibacterial activity against Escherichia coli at 500 ppm
Pseudomonas aeruginosa = assay: Antibacterial activity against Pseudomonas aeruginosa at 500 ppm
Candida albicans = assay: Antifungal activity against Candida albicans at 500 ppm

| Structure (SMILES) | zone of inhibition at 500 ppm (Bacillus subtilis) | zone of inhibition at 500 ppm (Proteus mirabilis) | zone of inhibition at 500 ppm (Aspergillus fumigatus) | zone of inhibition at 500 ppm (Escherichia coli) | zone of inhibition at 500 ppm (Pseudomonas aeruginosa) | zone of inhibition at 500 ppm (Candida albicans) |
| --- | --- | --- | --- | --- | --- | --- |
| CN(C)c1ccc(C2C3SC4=NC(c5ccccc5)(c5ccccc5)C(=O)N4C3=NN2CCON2C(=O)c3ccccc3C2=O)cc1 (stereo unspecified) | 7 mm | 5 mm | 2 mm | 10 mm | 10 mm | 17 mm |
| O=C(O)c1cn(C2CC2)c2cc(N3CCNCC3)c(F)cc2c1=O [CIPROFLOXACIN] | 17 mm | 16 mm |  | 16 mm | 18 mm |  |
| O=C1c2ccccc2C(=O)N1OCCNc1nc(-c2ccccc2)c2c(n1)N1C(=O)C(c3ccccc3)(c3ccccc3)N=C1S2 | 7 mm | 10 mm | 2 mm | 18 mm | 14 mm | 26 mm |
| O=C1c2ccccc2C(=O)N1OCCN1N=C2C(SC3=NC(c4ccccc4)(c4ccccc4)C(=O)N32)C1c1ccc(F)cc1 (stereo unspecified) | 6 mm | 8 mm | 5 mm | 12 mm | 11 mm | 20 mm |
| C[C@@H]1[C@H](O)[C@@H](C)/C=C/C=C/C=C/C=C/C=C/C=C/C=C/[C@H](O[C@@H]2O[C@H](C)[C@@H](O)[C@H](N)[C@@H]2O)C[C@@H]2O[C@](O)(C[C@@H](O)C[C@@H](O)[C@H](O)CC[C@@H](O)C[C@@H](O)CC(=O)O[C@H]1C)C[C@H](O)[C@H]2C(=O)O [AMPHOTERICIN B] |  |  | 10 mm |  |  | 17 mm |
| O=C1c2ccccc2C(=O)N1OCCN1N=C2C(SC3=NC(c4ccccc4)(c4ccccc4)C(=O)N32)C1c1ccccc1 (stereo unspecified) | 9 mm | 3 mm | 4 mm | 12 mm | 14 mm | 19 mm |
| O=C1c2ccccc2C(=O)N1OCCNc1nc(-c2ccc(F)cc2)c2c(n1)N1C(=O)C(c3ccccc3)(c3ccccc3)N=C1S2 | 13 mm | 8 mm | 4 mm | 13 mm | 21 mm | 23 mm |
| CN(C)c1ccc(-c2nc(NCCON3C(=O)c4ccccc4C3=O)nc3c2SC2=NC(c4ccccc4)(c4ccccc4)C(=O)N23)cc1 | 10 mm | 7 mm | 8 mm | 15 mm | 11 mm | 19 mm |
| O=C1c2ccccc2C(=O)N1OCCNc1nc(-c2ccc(Cl)cc2)c2c(n1)N1C(=O)C(c3ccccc3)(c3ccccc3)N=C1S2 | 5 mm | 4 mm | 6 mm | 13 mm | 13 mm | 11 mm |
| COc1ccc(-c2nc(NCCON3C(=O)c4ccccc4C3=O)nc3c2SC2=NC(c4ccccc4)(c4ccccc4)C(=O)N23)cc1 | 12 mm | 6 mm | 5 mm | 11 mm | 12 mm | 21 mm |
| COc1ccc(C2C3SC4=NC(c5ccccc5)(c5ccccc5)C(=O)N4C3=NN2CCON2C(=O)c3ccccc3C2=O)cc1 (stereo unspecified) | 11 mm | 6 mm | 3 mm | 9 mm | 17 mm | 18 mm |
| O=C1c2ccccc2C(=O)N1OCCN1N=C2C(SC3=NC(c4ccccc4)(c4ccccc4)C(=O)N32)C1c1ccc(Cl)cc1 (stereo unspecified) | 4 mm | 5 mm | 6 mm | 11 mm | 9 mm | 20 mm |
